Tested on: STZ-induced NIDDM in outbred ICR mice
Assay: Effect of orally administered MIF antagonist on STZ-induced NIDDM in ICR mice
Format: in vivo
Conditions: for blood glucose levels: STZ 90 mg/Kg i.p., oral, daily single dose for 30 days; for blood glucose levels / serum levels of inflammatory cytokines / pro-inflammatory cytokine production: dose not stated
Protocol: ICR, MIF−/− BALB/c and BALB/c mice were fasted 20 hr before induction of diabetes with a single i.p. injection of STZ 90 mg/Kg (for ICR mice) or 130 mg/kg (for BALB/c mice) (Sigma, St. Louis, Mo., U.S.A.) freshly dissolved in 0.05 M citrate buffer, pH 4.5 following the protocol previously reported (13;14). Normal mice of each strain were injected with equivalent volume of citrate buffer as negative controls.
Blood samples from WT and MIF−/− mice were collected at 0, 1, 2, 4, 6, 8, and 10 weeks after STZ injection by tail snipping. Serum glucose levels were determined using Accu-Chek® glucometer. Body weights were measured immediately before blood collection. The animals were kept in individual metabolic cages for 24 hrs and provided with drinking water (100 ml) and food (75 g). The water and food consumption as well as urine output over a 24 hr period was determined. This process was repeated every week until 10 weeks after STZ induction.
Following administration of STZ, blood was collected at 1-week intervals by tail snips. Levels of TNF-α, IL-1β, IL-6, IL-4, IL-10, resistin (all from Peprotech, Mexico), and insulin (Lincon, St. Charles, Mo.) in sera were determined by ELISA as per the manufacturer's instructions.
Age and sex-matched ICR mice were fasted for 20 hrs and then injected i.p. with STZ (90 mg/Kg). Six-hours later following STZ injection mice were administered CSP1306 or PBS daily in a single dose orally for 30 days. Blood was collected by tail snipping once every week to measure glucose levels using Accu-Chek® glucometer and to determine cytokine levels by ELISA as described above. CPSI 1306 has the following formula: […]
NIDDM was induced in ICR mice by a single intraperitoneal injection of STZ (90 mg/kg). On day 5 post-STZ injection and thereafter mice were orally administered CPSI-1306 (1 mg/kg or 0.1 mg/Kg) daily for 30 days. Mice were bled once a week by tail sniping and levels of glucose (A) and inflammatory cytokines IL-6 (B) and TNF-α (C) in the blood were determined. The data are from one representative experiment out of three. * p<0.05.

[1] = ICR mice with STZ injection, 0.1 and 0.01 mg/kg
[2] = ICR mice, STZ-induced NIDDM, oral administration, ELISA

## O=C(C[C@H]1CC(c2ccc(F)cc2F)=NO1)N1CCOCC1 [CPSI-1306]
[1]
  blood glucose: significant reduction
  polyuria: less polyuria
  serum levels of inflammatory cytokines: significant reduction
  severity of NIDDM: reduced severity of NIDDM
ICR mice with STZ injection, after stoppage of treatment, data not shown
  blood glucose levels after stoppage of treatment: spike in blood glucose levels
ICR mice, listed as CSP156
  blood glucose levels: significant drop
ICR mice, listed as CSP1306
  blood glucose levels: significantly lowered blood glucose levels in majority of animals
ICR mice, listed as CSPI-1306
  blood glucose levels: highly effective
[2]
  level of pro-inflammatory cytokine IL-6 in the sera: significant reduction
  level of pro-inflammatory cytokine TNF-α in the sera: significant reduction
ICR mice, STZ-induced NIDDM, oral administration, listed as CSP156
  serum levels of inflammatory cytokines / pro-inflammatory cytokine production: reduction in serum levels of inflammatory cytokines
ICR mice, STZ-induced NIDDM, oral administration, listed as CSPI-1306
  serum levels of inflammatory cytokines / pro-inflammatory cytokine production: highly effective in suppressing pro-inflammatory cytokine production
Outbred ICR mice, STZ 90 mg/kg i.p., oral 1 mg/kg or 0.1 mg/Kg daily for 30 days from day 5 post-STZ
  severity and progression of STZ-induced NIDDM (FIG. 6): Significantly Reduces Severity and Progression

Reference: US20130123261A1, “ISOXAZOLINE COMPOUNDS IN TYPE 2 DIABETES AND OTHER MALADIES” (CPSI STOCKHOLDER TRUST, priority 2009, published 2013)
